# Test results published in the supplement of paper PMC10307832.
# Assays:
# [1] = compound: CN1C=C(C2=CC=CC=C21)/C=C\3/C4=C(C=CC=N4)NC3=O; assay: relative viability (nuclei count vs DMSO), 5 days (fraction); higher = more cells survive
# Method in brief: (§1)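 Viability was read as treated-well nuclei divided by vehicle-well nuclei, using the median across plates. Lung cancer cell lines in 1536-well plates were kept overnight at 37 °C, pinned with five √10-spaced library-drug doses, and after 5 days were Hoechst-stained, imaged at 4× and counted in MetaXpress. Plates passed only with control CV below 25% and at least one doubling.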
# [2] = compound: CC(=O)Nc1cccc(-n2c(=O)n(C3CC3)c(=O)c3c(Nc4ccc(I)cc4F)n(C)c(=O)c(C)c32)c1 [Trametinib]; assay: as above
# Method in brief: as §1
Cell Line,relative viability ([1]; 0.02 µM),relative viability ([1]; 0.06325 µM),relative viability ([1]; 0.2 µM),relative viability ([1]; 0.6325 µM),relative viability ([1]; 2 µM),relative viability ([2]; 0.0025 µM),relative viability ([2]; 0.007906 µM),"relative viability ([2]; 0.02 µM, anchor plate)",relative viability ([2]; 0.025 µM),relative viability ([2]; 0.07906 µM),relative viability ([2]; 0.25 µM)
NCI-H2023,1.01,0.962,0.768,0.945,0.898,0.964,0.765,0.611,0.655,0.632,0.334
Calu-6,1.02,0.968,1.01,0.99,1.05,0.915,0.727,–,0.472,0.24,0.18
SW 900,0.969,0.79,–,1.02,0.987,0.713,0.811,0.808,0.751,0.771,0.19
HOP-62,0.992,1.03,0.805,1.02,0.938,1,0.943,0.4,0.778,0.444,0.209
H3255,1.04,0.951,0.834,0.978,0.903,0.973,0.879,0.631,0.787,0.742,0.563
NCI-H1734,0.971,0.939,–,1.05,1.06,0.959,0.92,0.717,–,0.911,0.41
SK-MES-1,0.967,0.959,0.951,0.929,0.967,0.948,0.803,0.574,0.621,0.485,0.359
NCI-H1792,0.88,0.979,0.69,0.829,0.957,0.844,0.856,0.475,0.477,0.387,0.281
EKVX,0.952,0.812,0.801,0.885,0.983,0.852,0.766,0.364,0.583,0.491,0.395
EPLC-272H,0.921,0.828,0.639,0.645,0.869,0.844,0.644,0.287,0.503,0.327,0.188
LK-2,–,0.697,0.652,0.776,0.975,0.93,0.832,0.761,0.989,0.757,0.388
CAL-12T,0.894,0.873,0.98,0.972,0.924,0.904,0.723,0.369,0.503,0.51,0.343
NCI-H322M,0.854,0.93,0.787,0.973,0.956,0.81,0.717,0.519,0.603,0.556,0.432
NCI-H1650,1.03,0.923,0.685,0.794,0.914,0.902,0.898,0.583,0.827,0.599,0.264
NCI-H2342,0.938,0.963,0.955,0.878,0.906,0.958,0.915,0.847,0.554,0.749,0.855
SW 1573,1.07,0.968,0.994,1.05,0.971,0.875,0.716,0.615,0.631,0.583,0.485
NCI-H2405,0.987,0.959,0.715,0.966,0.961,0.944,0.946,0.665,0.553,0.535,0.556
LCLC-103H,0.963,0.933,0.976,0.98,0.959,0.92,0.869,0.672,0.814,0.697,0.685
HCC-44,0.902,0.906,0.87,0.991,0.935,0.966,0.982,1.05,1.02,0.82,0.495
RERF-LC-KJ,1,1.01,1.02,0.914,0.984,0.969,0.926,0.873,0.885,0.848,0.757
NCI-H1975,1.03,0.898,0.887,0.845,0.677,0.883,0.76,0.374,0.754,0.431,0.301

Cell Line,relative viability ([1]; 0.02 µM),relative viability ([1]; 0.06325 µM),relative viability ([1]; 0.2 µM),relative viability ([1]; 0.6325 µM),relative viability ([1]; 2 µM),relative viability ([2]; 0.0025 µM),relative viability ([2]; 0.007906 µM),"relative viability ([2]; 0.02 µM, anchor plate)",relative viability ([2]; 0.025 µM),relative viability ([2]; 0.07906 µM),relative viability ([2]; 0.25 µM)
IA-LM,0.978,0.934,0.945,0.811,0.878,0.764,0.464,–,0.166,0.178,0.107
LCLC-97TM1,0.701,0.844,0.717,1.11,0.922,0.884,0.836,0.197,0.398,0.204,0.138
NCI-H520,0.967,0.895,1.03,0.952,0.965,0.86,1.06,0.735,0.924,0.949,0.623
A-427,1.06,0.955,–,1.04,1.03,1.04,0.96,0.77,0.66,0.68,0.35
ABC-1,0.829,0.896,0.709,0.857,0.764,0.963,0.908,–,0.749,0.547,0.333
NCI-H460,1.04,0.98,0.973,0.992,0.947,0.982,0.969,0.159,0.668,0.339,0.12
NCI-H1395,0.818,0.894,0.632,0.878,0.785,1.03,0.83,1.03,0.69,0.67,0.523
EBC-1,0.968,0.963,0.905,0.912,0.969,1,0.98,–,0.648,0.308,0.207
NCI-H23,0.802,0.849,0.685,1.03,0.986,0.876,0.831,0.417,0.349,0.433,0.264
LOU-NH91,0.902,0.825,0.844,0.856,0.95,0.926,0.923,0.799,0.761,0.8,0.366
NCI-H2009,0.975,0.994,1.02,1.05,1.05,0.864,0.647,0.297,0.384,0.355,0.331
NCI-H358,0.907,0.931,0.916,0.891,0.938,0.643,0.472,0.137,0.328,0.27,0.259
NCI-H2126,0.965,0.993,0.885,1.01,0.955,0.9,0.836,0.572,0.585,0.738,0.669
ChaGo-K-1,0.991,1,0.784,1.02,0.996,0.999,0.921,0.917,0.951,0.861,0.764
NCI-H1437,1.06,0.998,0.882,1.05,1.04,0.959,0.742,0.535,0.478,0.388,0.361
SK-LU-1,0.793,0.928,0.984,0.945,1.08,1.03,0.88,0.475,0.641,0.548,0.412
NCI-H838,0.82,0.859,0.914,0.837,0.909,0.873,0.855,0.527,0.615,0.763,0.594
NCI-H1755,0.968,0.991,1.05,0.914,0.891,0.886,0.879,0.773,0.83,0.885,0.842
NCI-H2228,1.05,0.856,–,0.864,1.14,0.771,0.885,0.555,0.811,0.61,0.363
NCI-H1915,0.964,0.934,0.97,1.09,1.05,1.05,0.737,0.3,0.54,0.423,0.353
NCI-H2347,1.05,1.01,0.94,0.932,1.02,0.988,0.535,0.285,0.377,0.356,0.371

Cell Line,relative viability ([1]; 0.02 µM),relative viability ([1]; 0.06325 µM),relative viability ([1]; 0.2 µM),relative viability ([1]; 0.6325 µM),relative viability ([1]; 2 µM),relative viability ([2]; 0.0025 µM),relative viability ([2]; 0.007906 µM),"relative viability ([2]; 0.02 µM, anchor plate)",relative viability ([2]; 0.025 µM),relative viability ([2]; 0.07906 µM),relative viability ([2]; 0.25 µM)
HARA,0.935,0.972,0.657,0.96,0.928,0.861,0.947,0.674,0.86,0.503,0.375
NCI-H2085,1.01,0.943,0.942,1.03,0.993,0.913,0.823,0.504,0.754,0.783,0.729
NCI-H650,0.968,0.915,–,0.84,0.846,1.1,1.24,0.98,1.08,0.957,0.623
NCI-H727,0.924,0.855,0.818,0.921,0.936,0.678,0.381,0.389,0.381,0.295,0.288
NCI-H1993,0.927,0.84,0.825,0.671,0.814,0.698,0.732,0.54,0.548,0.693,0.628
A549,0.935,0.992,0.767,0.923,0.989,0.864,0.658,–,0.375,0.278,0.14
EMC-BAC-2,1.1,0.92,0.89,0.798,0.673,1.2,1.01,0.859,0.775,0.61,0.635
NCI-H1563,1.08,1,0.99,1.05,0.992,0.983,0.782,–,0.952,0.938,0.723
NCI-H1703,0.943,0.827,0.8,0.9,0.776,0.778,0.906,–,0.825,0.875,0.684
NCI-H2087,1,0.87,1.05,0.986,1.06,0.867,0.463,0.217,0.302,0.179,0.139
NCI-H1299,1.01,1.01,1.02,1.05,1.02,1.04,1.04,–,0.897,0.818,0.584
NCI-H441,1.19,0.935,1.08,1.01,1.02,0.959,0.908,0.522,0.667,0.605,0.246
LXF-289,0.979,1,0.976,1,1.03,0.897,0.86,0.679,0.755,0.722,0.664
NCI-H661,0.999,0.986,0.985,1.06,0.986,1.01,0.975,0.575,0.899,0.799,0.724
PC-3 [JPC-3],1.03,1.02,0.859,0.975,0.989,1.03,0.916,0.7,0.843,0.764,0.637
HCC-366,1.01,1,0.923,1.1,1.02,0.959,0.969,0.373,0.796,0.669,0.395
NCI-H522,0.89,1.13,0.869,0.944,0.883,1.01,1.04,0.776,0.595,0.756,0.63
NCI-H1651,1.07,0.961,0.957,0.945,1.06,0.942,0.958,0.837,0.851,0.837,0.691
NCI-H1648,0.603,0.885,0.812,0.601,0.671,0.776,0.864,0.505,0.809,0.541,0.455
NCI-H1355,0.933,0.888,0.899,0.692,0.824,0.921,0.796,0.419,0.542,0.653,0.583
LC-2-ad,0.988,0.995,0.786,1,0.959,0.948,0.871,0.9,0.875,0.587,0.596
